# Measured values reported in ChEMBL document CHEMBL1201862, “PubChem BioAssay data set” (2004).
# Active and inactive are the calls of the source.
# Tests used:
# [1] = biological target: Cytochrome P450 2C9 (Homo sapiens, UniProt P11712)
# [2] = reduction of Shn3 3'UTR-driven luciferase in osteoblasts – cell-based, Clone20 osteoblasts, firefly luciferase, cherry-picked, dose response (AID 624132); format: functional;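 also: firefly luciferase luminescence from reporter carrying the Shn3 3'UTR in osteoblasts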
# [3] = loss of viability in HepG2 cells – cell-based, CellTiter-Glo, cherry-picked, cytotoxicity control for Shn3 inhibitor project, dose response (AID 624134); format: functional
# [4] = non-specific 3'UTR reporter inhibition in Clone20-Shn3RL – cell-based, Renilla luciferase, cherry-picked, counter-screen for Shn3 inhibitor project, dose response (AID 624133); format: functional
# [5] = luciferase reporter signal suppression in cells – H4 neuroglioma cells, luminescence, dose response (AID 1990); format: functional, cell-based
# [6] = cells; format: functional, cell-based
# [7] = Luminescence Cell-Based Dose Response HTS to Identify Inhibitors of 5'UTR Stem-Loop Driven Prion Protein mRNA Translation in H4 Neuroglioblastoma Cells. [Related pubchem assays: 1827 (Project Summary), 1813 (Primary HTS)]; format: functional
# [8] = alpha-synuclein stem-loop luciferase translation blockers – H4 neuroglioma cells, luminescence, confirmation (AID 1988); format: functional, cell-based
# [9] = cells; format: functional, cell-based; remark: listed apart in the source
# [10] = test system: Streptococcus sp. 'group A'; test: Streptococcus pyogenes SK(-)GAS viability under kanamycin – luminescence, BacTiterGlo, confirmation, counter-screen for streptokinase expression inhibitor project, dose response (AID 1900); format: functional, organism-based
# [11] = biological target: T1, Streptokinase A (Streptococcus pyogenes serotype M1, UniProt P10520); test: viability-normalized secreted streptokinase activity reduction – plasminogen activation absorbance, OD405, dose response (AID 1914); format: functional, Streptococcus pyogenes M1 GAS;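 also: secreted streptokinase activity via plasminogen activation per viability signal from cell pellet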
# T1 sequence (P10520 whole entry): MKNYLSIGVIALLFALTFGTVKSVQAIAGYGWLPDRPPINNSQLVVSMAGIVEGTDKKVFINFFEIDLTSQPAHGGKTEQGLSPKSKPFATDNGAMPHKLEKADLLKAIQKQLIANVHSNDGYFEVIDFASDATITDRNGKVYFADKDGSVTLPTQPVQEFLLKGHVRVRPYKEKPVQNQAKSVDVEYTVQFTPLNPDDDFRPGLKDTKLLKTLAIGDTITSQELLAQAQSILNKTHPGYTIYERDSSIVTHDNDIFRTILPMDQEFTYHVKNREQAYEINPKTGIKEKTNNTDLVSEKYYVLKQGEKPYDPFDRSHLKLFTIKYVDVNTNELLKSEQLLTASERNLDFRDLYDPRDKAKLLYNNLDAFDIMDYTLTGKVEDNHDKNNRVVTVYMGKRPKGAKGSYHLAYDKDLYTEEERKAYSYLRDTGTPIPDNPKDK
# [12] = test system: Streptococcus; test: GAS UMAA2166 growth inhibition – luminescence, BacTiterGlo, counter-screen for streptokinase expression inhibitor project, dose response (AID 1915); format: functional, organism-based;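 also: potency for reduction of bacterial viability or growth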
# [13] = Trypanosoma cruzi growth suppression in host cells – NIH3T3 host cells, beta-gal luminescence, confirmation (AID 2044); format: functional, cell-based;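 also: intracellular parasites grown in NIH/3T3 mouse fibroblasts as host cells; luminescent beta-galactosidase reporter signal from transgenic T. cruzi replicating inside host cells; inhibitors lower the luminescence signal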
# [14] = NIH3T3 cell viability loss – ATP luminescence, mouse fibroblasts, counter-screen, dose response (AID 2010); format: functional, cell-based;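 also: cells exposed to compound for about 90 hours before reading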
# [15] = biological target: Luciferin 4-monooxygenase (Photinus pyralis, UniProt P08659); test: inhibition of purified Photinus pyralis luciferase – biochemical, luminescence, dose response (AID 1891)
# Luciferin 4-monooxygenase, sequence (P08659 whole entry): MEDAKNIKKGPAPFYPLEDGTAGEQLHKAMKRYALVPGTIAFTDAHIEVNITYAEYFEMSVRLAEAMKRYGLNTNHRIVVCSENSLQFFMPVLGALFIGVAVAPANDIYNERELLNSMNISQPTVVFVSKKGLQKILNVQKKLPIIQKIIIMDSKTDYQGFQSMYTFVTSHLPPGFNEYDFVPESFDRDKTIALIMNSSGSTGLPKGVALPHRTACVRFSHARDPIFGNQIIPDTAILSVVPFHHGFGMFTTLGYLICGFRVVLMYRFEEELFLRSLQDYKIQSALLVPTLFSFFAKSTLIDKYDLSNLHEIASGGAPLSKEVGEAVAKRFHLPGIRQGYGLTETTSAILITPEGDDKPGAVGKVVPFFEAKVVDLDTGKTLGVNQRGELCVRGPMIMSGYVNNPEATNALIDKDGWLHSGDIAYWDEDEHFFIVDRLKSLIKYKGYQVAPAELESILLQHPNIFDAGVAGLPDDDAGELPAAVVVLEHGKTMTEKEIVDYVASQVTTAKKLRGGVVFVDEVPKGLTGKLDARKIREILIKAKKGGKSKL
# [16] = Luminescence Cell-Based Dose Confirmation HTS to Identify Inhibitors of Platelet Dense Granule Release. [Related pubchem assays: 1663 (Primary HTS), 1678 (Summary of Project)]; format: functional
# [17] = biological target: T2, Corticotropin-releasing factor receptor 2/Corticotropin-releasing factor-binding protein (Homo sapiens, UniProt P24387+Q13324); test: Dose Response confirmation of uHTS hits for small molecule antagonists of the CRF-binding protein and CRF-R2 receptor complex.; format: functional; conditions: read-out: IC50_Mean
# T2 sequence (Q13324 whole entry): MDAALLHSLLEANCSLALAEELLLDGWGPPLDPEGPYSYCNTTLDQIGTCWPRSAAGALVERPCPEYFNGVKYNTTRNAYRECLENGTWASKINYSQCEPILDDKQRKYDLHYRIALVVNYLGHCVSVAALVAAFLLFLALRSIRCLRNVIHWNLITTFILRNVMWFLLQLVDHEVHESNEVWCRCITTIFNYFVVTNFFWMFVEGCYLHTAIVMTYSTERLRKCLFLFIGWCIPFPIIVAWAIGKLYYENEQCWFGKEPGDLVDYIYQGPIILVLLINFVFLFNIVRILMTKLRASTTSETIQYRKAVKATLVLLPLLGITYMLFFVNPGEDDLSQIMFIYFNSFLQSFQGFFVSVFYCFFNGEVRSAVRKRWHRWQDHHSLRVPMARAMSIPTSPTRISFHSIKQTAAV
# T2 sequence (P24387 whole entry): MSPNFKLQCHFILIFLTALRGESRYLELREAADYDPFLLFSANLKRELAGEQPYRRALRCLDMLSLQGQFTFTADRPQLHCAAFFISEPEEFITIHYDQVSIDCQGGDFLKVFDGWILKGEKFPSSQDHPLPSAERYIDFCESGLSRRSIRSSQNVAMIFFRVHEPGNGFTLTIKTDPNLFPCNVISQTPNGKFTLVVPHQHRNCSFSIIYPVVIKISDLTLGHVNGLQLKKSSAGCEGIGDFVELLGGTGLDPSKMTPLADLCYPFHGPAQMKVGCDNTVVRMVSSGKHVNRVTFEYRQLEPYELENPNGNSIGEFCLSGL
# [18] = biological target: T2, Corticotropin-releasing factor receptor 2/Corticotropin-releasing factor-binding protein; test: activators of CRF receptor 2 with binding protein – uHTS hits, confirmation (AID 602473); format: functional; conditions: read-out: EC50_Mean
# [19] = viability of uninfected HEp-2 cells – cell-based, HTS, cytotoxicity control for RSV inhibitor project, dose response (AID 2410); format: functional; conditions: human respiratory syncytial virus
# [20] = biological target: T3, Heat shock factor protein 1 (Mus musculus, UniProt P38532); test: decrease of HSF1-responsive luciferase luminescence – cell-based, NIH3T3, dose retest, confirmation (AID 2382); format: functional;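 also: NIH3T3 fibroblasts with HSF1-driven luciferase reporter stressed by proteasome inhibitor MG132; luminescence from HSF1-driven luciferase expression after 8 hours of MG132 stress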
# T3 sequence (P38532 whole entry): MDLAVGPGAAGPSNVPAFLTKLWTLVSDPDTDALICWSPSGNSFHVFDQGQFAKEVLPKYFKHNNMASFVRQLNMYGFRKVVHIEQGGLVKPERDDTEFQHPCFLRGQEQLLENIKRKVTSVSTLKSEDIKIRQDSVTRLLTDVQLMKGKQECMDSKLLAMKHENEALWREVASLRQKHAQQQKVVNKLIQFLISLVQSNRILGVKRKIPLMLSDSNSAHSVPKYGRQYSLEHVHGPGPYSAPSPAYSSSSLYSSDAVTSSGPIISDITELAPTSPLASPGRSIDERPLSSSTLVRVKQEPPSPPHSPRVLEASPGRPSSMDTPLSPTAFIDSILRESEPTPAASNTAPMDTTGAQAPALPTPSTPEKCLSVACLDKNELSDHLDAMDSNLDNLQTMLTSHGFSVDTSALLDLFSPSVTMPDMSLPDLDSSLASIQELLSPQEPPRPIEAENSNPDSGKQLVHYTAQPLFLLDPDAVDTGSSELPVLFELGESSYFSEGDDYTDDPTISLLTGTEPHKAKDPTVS
# [21] = biological target: Cytochrome P450 2C19 (Homo sapiens, UniProt P33261); test: Cytochrome panel assay with activity outcomes. Panel member name: p450-cyp2c19 Compounds with AC50 equal or less than 10 uM are considered active; format: functional; conditions: read-out: AC50
# Cytochrome P450 2C19, sequence (P33261 whole entry): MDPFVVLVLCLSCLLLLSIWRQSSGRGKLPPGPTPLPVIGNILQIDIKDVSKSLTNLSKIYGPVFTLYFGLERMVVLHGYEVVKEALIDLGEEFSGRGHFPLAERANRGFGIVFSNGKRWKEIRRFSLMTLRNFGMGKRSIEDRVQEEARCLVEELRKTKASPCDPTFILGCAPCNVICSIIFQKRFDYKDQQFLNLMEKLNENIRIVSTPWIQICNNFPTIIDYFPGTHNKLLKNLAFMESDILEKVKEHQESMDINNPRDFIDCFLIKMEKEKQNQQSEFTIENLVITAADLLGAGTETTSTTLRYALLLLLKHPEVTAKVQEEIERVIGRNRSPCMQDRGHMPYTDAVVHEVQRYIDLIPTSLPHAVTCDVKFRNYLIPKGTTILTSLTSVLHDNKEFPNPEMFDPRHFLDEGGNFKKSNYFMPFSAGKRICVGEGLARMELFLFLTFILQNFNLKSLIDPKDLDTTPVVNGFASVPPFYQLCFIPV
# Cytochrome P450 2C9, sequence (P11712 whole entry): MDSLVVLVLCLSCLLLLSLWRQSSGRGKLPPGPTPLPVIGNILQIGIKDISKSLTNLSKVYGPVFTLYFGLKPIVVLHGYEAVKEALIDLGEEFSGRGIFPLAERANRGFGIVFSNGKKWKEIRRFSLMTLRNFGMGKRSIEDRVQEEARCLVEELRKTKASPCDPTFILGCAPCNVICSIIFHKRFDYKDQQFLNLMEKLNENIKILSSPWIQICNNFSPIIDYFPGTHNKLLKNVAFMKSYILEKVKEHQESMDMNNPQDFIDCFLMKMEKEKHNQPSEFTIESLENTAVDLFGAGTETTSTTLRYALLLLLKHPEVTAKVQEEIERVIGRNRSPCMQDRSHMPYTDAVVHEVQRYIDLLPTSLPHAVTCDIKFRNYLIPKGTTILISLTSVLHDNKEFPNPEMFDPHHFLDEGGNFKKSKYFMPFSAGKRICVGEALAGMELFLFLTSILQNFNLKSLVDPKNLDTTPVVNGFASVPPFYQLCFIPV
structure (smiles),measurement,setting,value
Cc1ccc2cc3cc(C(=O)N4CCC5(CC4)OCCO5)oc3nc2c1,AC50,[1],inconclusive
COc1ccc(CC(N)c2csc(NC(=O)c3cc(C(C)(C)C)nn3Cc3ccccc3)n2)cc1 (centres undefined),AC50,[2],9.53 µM (active)
same,AC50,[3],9.69 µM (active)
same,AC50,[4],22.9 µM (active)
CC(C)c1ccc(-c2c(C#N)c(N)nc3c2CCCCC3)cc1,EC50,[5],> 120 µM (not active)
same,EC50,[6],> 350 µM (not active)
same,EC50,[7],> 120 µM (not active)
same,EC50,[8],41.9 µM (active)
same,EC50,[9],> 350 µM (not active)
COC(=O)c1ccc(C(C(=O)NCc2ccccc2)N(Cc2ccco2)C(=O)c2cnccn2)cc1 (centres undefined),EC50,[6],> 350 µM (not active)
same,EC50,[9],> 350 µM (not active)
COc1ccc(-c2cc3nc(-c4ccccc4)cc(N4CCCC(O)C4)n3n2)cc1 (centres undefined),EC50,[10],6.75 µM (active)
same,EC50,[11],> 150 µM (not active)
same,EC50,[12],14.3 µM (active)
CCOc1ccc(C(=O)O)cc1OC,AC50,[1],inconclusive
CCCn1c2ccccc2c2cnn(CC(=O)NC3CCCC(C)C3C)c(=O)c21 (centres undefined),EC50,[6],> 350 µM (not active)
same,EC50,[9],> 350 µM (not active)
COC(=O)N/N=C\C=C\c1ccc2c(c1)OCO2,AC50,[1],inconclusive
CC(C)(C)n1nnnc1C(c1cccs1)N1CCCC2(CCCCC2)C1 (centres undefined),EC50,[13],2.15 µM (active)
same,EC50,[14],> 60 µM (not active)
same,AC50,[2],21.7 µM (active)
same,AC50,[3],> 70 µM (inactive)
COc1ccc(S(=O)(=O)N2CCN(C(=O)c3cc(-c4ccc(Br)cc4)[nH]n3)CC2)cc1OC,AC50,[2],4.55 µM (active)
same,AC50,[3],55.6 µM (active)
same,AC50,[4],4.76 µM (active)
CCCCCOc1ccc(Br)cc1CSC(=N)N,AC50,[2],1.47 µM (active)
same,AC50,[3],11.3 µM (active)
same,AC50,[4],10.5 µM (active)
CCOC(=O)c1c(NC(=O)CCc2ccc(CC)o2)sc(C)c1C,AC50,[1],inconclusive
O=C(N/N=C/c1cc2cc3c(cc2nc1Cl)OCO3)c1ccncc1,EC50,[6],> 350 µM (not active)
same,EC50,[15],> 112 µM (not active)
same,EC50,[16],> 112 µM (not active)
same,EC50,[9],> 350 µM (not active)
Cc1nc(N)sc1-c1csc(N(C)c2ccc(O)cc2)n1,EC50,[10],5.24 µM (active)
same,EC50,[11],> 150 µM (not active)
same,EC50,[12],95.2 µM (active)
same,IC50,[17],> 47.1 µM (inactive)
same,EC50,[18],> 53 µM (inactive)
COc1ccc(CCNC(=O)c2ccc(CNS(=O)(=O)c3ccc(C(C)(C)C)cc3)cc2)cc1OC,EC50,[11],> 150 µM (not active)
same,EC50,[12],35.9 µM (active)
Cc1ccc(-c2nn(-c3ccccc3)cc2/C=N/n2c(S)nnc2-c2cccs2)cc1,CC50,[19],14.7 µM (active)
same,EC50,[10],10.3 µM (active)
same,EC50,[11],103 µM (active)
same,EC50,[12],82.8 µM (active)
N=c1c2c(-c3ccccc3)c(-c3ccccc3)oc2ncn1Cc1ccco1,EC50,[10],6.44 µM (active)
same,EC50,[11],17.5 µM (active)
same,EC50,[12],30.3 µM (active)
COCCn1c(-c2ccc(OC)cc2)cnc1SCC(=O)Nc1ccc(OC)cc1OC,EC50,[6],> 350 µM (not active)
same,EC50,[9],> 350 µM (not active)
COc1cccc(C(=O)NC(=S)Nc2ccccc2N2CCCCC2)c1,EC50,[10],57.8 µM (active)
same,EC50,[11],41 µM (active)
same,EC50,[12],> 150 µM (not active)
CCOC(=O)c1c(NC(S)=NCCc2ccccc2)sc2c1CC(C(C)C)OC2 (centres undefined),EC50,[10],0.814 µM (active)
same,EC50,[11],> 150 µM (not active)
same,EC50,[12],15.1 µM (active)
CC(C)[C@@H](C(=O)NC1CCCC1)N1C(=O)N2CCc3c([nH]c4ccccc34)[C@@]2(C)C1=O,EC50,[10],30.2 µM (active)
same,EC50,[11],> 150 µM (not active)
same,EC50,[12],> 150 µM (not active)
Cc1ccc(/C(O)=C/C=N/c2ccccn2)cc1,EC50,[5],3.18 µM (active)
same,EC50,[7],1.4 µM (active)
same,EC50,[20],4.24 µM (active)
same,EC50,[8],0.188 µM (active)
same,EC50,[15],1.64 µM (active)
same,EC50,[16],5.11 µM (active)
CC(=O)N1CCC(=NNc2nc3ccccc3[nH]2)CC1,EC50,[6],> 350 µM (not active)
same,EC50,[9],32.3 µM (active)
COc1ccc(/C=C2/Sc3ccc(C(=O)N4CCc5ccccc5C4)cc3NC2=O)cc1,EC50,[10],1.73 µM (active)
same,EC50,[11],> 150 µM (not active)
same,EC50,[12],4.98 µM (active)
CCCOc1ccc(C2C(C(=O)c3cc4ccccc4o3)=C(O)C(=O)N2c2cc(C)on2)cc1OC (centres undefined),EC50,[10],1.2 µM (active)
same,EC50,[11],> 150 µM (not active)
same,EC50,[12],5.24 µM (active)
Cc1cc(C)c(C#N)c(SC[S+]([O-])c2ccc(C(C)(C)C)cc2)n1 (centres undefined),AC50,[1],inconclusive
Cn1ccnc1SCC(=O)Nc1ccc2c(c1)OC(F)(F)O2,EC50,[15],> 112 µM (not active)
same,EC50,[16],> 112 µM (not active)
NC(S)=Nc1cccc2cccnc12,AC50,[1],inconclusive
Cc1ccc(-n2nnnc2SCC(=O)NNC(=O)c2ccco2)c(C)c1,AC50,[1],inconclusive
CCn1nnnc1SCC(=O)NC1CCCC1,EC50,[15],> 112 µM (not active)
same,EC50,[16],> 112 µM (not active)
same,AC50,[21],35.5 µM (inconclusive)
CCn1c(SCC(=O)c2cc(C)ccc2C)nc2cc(S(=O)(=O)N3CCOCC3)ccc21,EC50,[6],> 350 µM (not active)
same,EC50,[9],> 350 µM (not active)
COc1ccc(/C=N/NC(=S)Nc2cc(S(=O)(=O)N3CCOCC3)ccc2N2CCOCC2)cc1O,EC50,[6],> 350 µM (not active)
same,EC50,[9],> 350 µM (not active)
COc1ccccc1N(C)S(=O)(=O)c1ccc(C(=O)Nc2cc(F)ccc2C)cc1,AC50,[2],13.8 µM (active)
same,AC50,[3],> 70 µM (inactive)
same,AC50,[4],26.5 µM (active)
O=C(CSc1nnc(-c2ccco2)n1Cc1ccco1)NCc1ccccc1,EC50,[6],> 350 µM (not active)
same,EC50,[9],> 350 µM (not active)
